Reference: US12590118B2, “Salt and crystal form of steroid derivative regulator” (Shanghai Hansoh Biomedical Co., Ltd., priority 2019, dated 2026)
pEC50, pIC50: −log10 of the molar value.

Legend:
ICR mice = assay: Forced swimming model in mice; format: in vivo; details: for Mean (immobility, %): floating time/240 s; for Mean (immobility, s): latter four minutes of 6 min swim; for immobility time during the latter four minutes compared with that of the model group: forced swimming, ICR mice
Experimental: The antidepressant effect of the compound was evaluated by the forced swimming model in mice.
Compounds of Examples 1 to 3, Example 9, Example 40, Example 41, Examples 48 to 52, Example 90 and Example 98 of the present invention, prepared by the applicant.
Male ICR mice (25-35 g) were adapted in the experiment environment for 3 days before the forced swimming test.
According to the experiment design, the mice were randomly grouped on the day before the experiment according to body weight, with 12 mice in each group. Before the test, the compounds of each example were administered intragastrically according to the Tmax thereof in the brain in mice pharmacokinetic experiment.
Respectively: • 1) Model group (0.5% CMC-Na-1% Tween 80 solution, p.o., 10 mL/kg); • 2) Compounds of Examples 1 to 3, Example 40, Example 41, Examples 48 to 51, Example 90 and Example 98 (10 mg/kg, p.o., 10 mL/kg); Example 9 and Example 52 (5 mg/kg, p.o., 5 mL/kg).
When being administered, the compounds of each example were suspended in 0.5% CMC-Na+1% Tween 80 solution to the desired concentration.
0.5-1 hour after administration, ICR mice were placed in a forced swimming device (transparent glass drum (water depth 18 cm, water temperature 25-26° C.), one mouse per tank) and forced to swim for 6 minutes. The forced swimming device recorded the floating time of the ICR mice during the entire 6 minutes, and the data of the latter four minutes were used for data analysis. The mice were taken out immediately after the swimming experiment, wiped dry and put back in their original cages.
Note: The criterion for determining the immobility time is that the mouse stops struggling in water and floats, and there are only slight limb movements to keep the head floating on the water.
3.4 Data Analysis Floating time percentage=100*floating time/240 s.

GABA-A receptor = assay: 35S-TBPS binding assay (GABAA receptor binding ability assay); set-up: species or system Sprague-Dawley rat; details: rat cerebral cortex cell membrane, 5 μM GABA, 2 nM 35S-TBPS; read-out: IC50 on inhibiting the TBPS binding activity, 35S-TBPS bindng assay
Experimental: 1. The cerebral cortex of male Sprague-Dawley rat was isolated.
2. A pre-chilled 0.32 M sucrose solution (one tablet of protease inhibitor was added per 100 mL) was added to the cerebral cortex (the volume of sucrose solution was 10 times the volume of the cerebral cortex). The mixture was crushed with a 50 mL glass tissue homogenizer in batches and mixed well.
3. The mixture was centrifuged at 1,500 g, 4° C. for 10 minutes, and the supernatant was collected.
4. The mixture was centrifuged at 20,000 g, 4° C. for 30 minutes, and the supernatant was discarded.
5. The precipitate was resuspended with the pre-chilled phosphate buffer saline (PBS) (one tablet of protease inhibitor was added per 100 mL). An average of 4 mL of PBS was added per rat, and the mixture was mixed well with a glass tissue homogenizer.
6. The mixture was centrifuged at 10,000 g, 4° C. for 10 minutes, and the supernatant was discarded.
7. Steps 5 and 6 were repeated three times.
8. Finally, the precipitate was resuspended with 4 volumes of PBS. The resulting solution was dispensed, frozen in liquid nitrogen, and stored at −80° C.
9. The protein concentration was measured by the bicinchoninic acid (BCA) method.
1. 230 μL of PBS was added to each well of a well plate with 1.1 mL volume.
2. 60 μL of the cerebral cortex cell membrane (5 μg/μL) solution was added to each well, and the mixture was mixed well.
3. The test compound (3 μL per well) was added, and the plate was incubated at 25° C. for 5 minutes. The DMSO concentration was 1%. The initial compound concentration was […], and a
3-fold dilution in gradient was carried out to obtain a total of 8 gradients and 2 replicates. 1% DMSO was used as a negative control, and 10 μM P026-2 was used as a positive control.
4. GABA was added at a final concentration of 5 μM, and incubated at 25° C. for 5 minutes. 1 mM GABA solution was formulated, and 1.5 μL of the solution was added to each well.
5. 35S-TBPS was added at a final concentration of 2 nM. The concentration of isotope mother solution was 9.7 μM. After dilution with PBS for 100 times, 6 μL of the diluted isotope solution was added to each well.
6. The plate was incubated at 4° C. for 20 hours.
7. The FilterMate GF/C plate was pre-treated with 0.5% PEI, and incubated at 4° C. for 1 hour.
8. The FilterMate GF/C plate was washed with Universal Harvester twice, 50 mL PBS each time.
9. The reaction solution was transferred to the GF/C plate, and each well was washed 4 times with 900 μL of PBS.
10. The washed GF/C plate was placed at 55° C. and dried for 10 minutes.
11. 40 μL of scintillation solution was added to each well, and the CPM value was read with TopCount.
In the experiment, the CPM (counts per minute) value was read with TopCount. According to the readings of the High control (DMSO) and the Low control (10 μM of the positive compound) experimental groups, the % inhibition was calculated based on the following formula: % Inhibition=100×(CPMHigh control−CPMsample)/(CPMHigh control−CPMLow control)
The IC50 of the compound was calculated according to the following 4-parameter nonlinear logic formula: Y=Bottom+(Top−Bottom)/(1+10^((Log IC50−X)*HillSlope)),
wherein: • X represents the log of compound concentration, • Y represents the % Inhibition.
The effect of the compound of the present invention on the TBPS binding activity was determined by the above test, and the measured IC50 values are shown in Table 5.

[1] = target: T1, human GABAA receptor α1, β2 and γ2 subunit (HEK293T cell line) (Homo sapiens, UniProt P14867+P47870); assay: Positive regulatory effect on GABAA receptor, manual patch clamp; format: cell-based; details: whole-cell current, 1 μM GABA
T1 construct: expressed in transfected cells
T1 sequence (P14867 28-456): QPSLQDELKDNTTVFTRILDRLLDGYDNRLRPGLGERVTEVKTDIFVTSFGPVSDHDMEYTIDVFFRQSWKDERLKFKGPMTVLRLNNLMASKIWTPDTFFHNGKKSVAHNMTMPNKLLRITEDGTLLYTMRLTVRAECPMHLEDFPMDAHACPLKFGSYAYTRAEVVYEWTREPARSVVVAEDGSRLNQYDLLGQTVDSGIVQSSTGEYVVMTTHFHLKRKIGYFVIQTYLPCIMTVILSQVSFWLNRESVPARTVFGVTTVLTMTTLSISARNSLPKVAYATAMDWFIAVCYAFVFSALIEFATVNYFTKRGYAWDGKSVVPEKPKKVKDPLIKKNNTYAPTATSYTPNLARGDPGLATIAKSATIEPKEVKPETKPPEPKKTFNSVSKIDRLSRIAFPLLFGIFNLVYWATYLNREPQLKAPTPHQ
T1 sequence (P47870 25-512 limits assumed): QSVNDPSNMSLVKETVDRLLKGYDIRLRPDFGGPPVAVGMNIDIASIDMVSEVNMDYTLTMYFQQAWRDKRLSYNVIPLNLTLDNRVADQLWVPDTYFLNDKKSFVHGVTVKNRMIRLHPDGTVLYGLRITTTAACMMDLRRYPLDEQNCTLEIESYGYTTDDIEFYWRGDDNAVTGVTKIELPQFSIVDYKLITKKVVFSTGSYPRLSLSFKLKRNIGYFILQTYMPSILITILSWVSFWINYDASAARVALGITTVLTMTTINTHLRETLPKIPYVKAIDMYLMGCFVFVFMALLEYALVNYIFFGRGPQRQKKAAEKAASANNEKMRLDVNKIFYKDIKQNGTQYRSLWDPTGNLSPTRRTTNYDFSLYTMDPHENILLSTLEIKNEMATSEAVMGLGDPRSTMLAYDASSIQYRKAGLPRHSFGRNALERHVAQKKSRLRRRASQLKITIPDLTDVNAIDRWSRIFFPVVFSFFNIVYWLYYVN
T1 sequence (P18507 40-475 partner): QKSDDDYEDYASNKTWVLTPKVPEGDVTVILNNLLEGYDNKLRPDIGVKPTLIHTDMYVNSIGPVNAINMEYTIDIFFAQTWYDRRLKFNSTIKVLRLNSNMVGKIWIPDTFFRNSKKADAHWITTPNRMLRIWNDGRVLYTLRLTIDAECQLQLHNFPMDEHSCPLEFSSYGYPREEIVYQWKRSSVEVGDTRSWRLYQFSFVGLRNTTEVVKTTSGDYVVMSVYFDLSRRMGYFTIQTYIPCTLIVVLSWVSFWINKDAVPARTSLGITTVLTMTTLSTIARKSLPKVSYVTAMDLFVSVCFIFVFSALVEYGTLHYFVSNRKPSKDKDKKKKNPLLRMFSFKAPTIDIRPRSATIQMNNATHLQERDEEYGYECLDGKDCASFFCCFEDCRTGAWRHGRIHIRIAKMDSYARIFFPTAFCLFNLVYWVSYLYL
Experimental: The objective of this test example is to determine the positive regulatory effect of the compound on GABAA receptor by the electrophysiological manual patch clamp method.
Manual patch clamp system HEKA EPC10 USB signal amplifier and digital conversion system (purchased from HEKA Electronics, Germany), centrifuge (Eppendorf, etc.), carbon dioxide incubator (purchased from Thermo, etc.), biological safety cabinet (Thermo, etc.), pipette (purchased from Eppendorf, etc.).
The cells were grown in a culture dish with DMEM medium (purchased from Invitrogen), and cultured in an incubator at 37° C. and 5% CO2. Before the electrophysiological experiment, the cells were transferred to a round glass slide placed in the culture dish, and grown in the same culture medium and under the same culture condition as above. The density of cells on each round glass slide should meet the requirement that most cells were independent and individual.
Each test compound was diluted in gradient with DMSO to obtain a stock solution, which was then diluted with extracellular fluid by 1,000-fold to obtain the final test concentration. The final concentration of DMSO in the compound solution with each concentration was 0.1%. The experiment used the manual patch clamp system HEKA EPC10 USB signal amplifier and digital conversion system for whole cell current recording. The round glass slide with HEK293T GABAA cells grown on the surface was taken out of the culture dish, and placed in the electrophysiological recording tank under the inverted microscope. The recording tank was continuously perfused with extracellular fluid. During the experiment, the whole-cell current recording technology was used to record the chloride current of the GABAA channel. 1 μM GABA was used to activate the chloride current of the GABAA channel of each cell as an initial control. 1 μM GABA acted on the cell through the drug perfusion system to induce the chloride current of the GABAA channel, the action time was about 3 to 5 seconds, and the current value was used as the initial control value. The test concentration of compound was perfused and incubated for 2 to 5 minutes. […] GABA solution (mixed with the test concentration of compound) was given to the cells to observe the enhancement effect of the test compound on the current induced by 1 μM GABA. When the cell state was stable, the test compound acted on the same cell from low to high concentration to record the enhancement effect of the induced current.
The experimental data was analyzed by HEKA Patchmaster, Microsoft Excel and the data analysis software provided by Graphpad Prism.

Row | Compound | Mean (immobility, %) (ICR mice; dose 10 mpk p.o.) [%] | Mean (immobility, s) (ICR mice; dose 10 mpk p.o.) [s] | pIC50 (GABA-A receptor) | Mean (immobility, %) (ICR mice; dose 5 mpk p.o.) [%] | Mean (immobility, s) (ICR mice; dose 5 mpk p.o.) [s] | pEC50 [1] | immobility time during the latter four minutes compared with that of the model group (ICR mice)
1 | C[C@@]1(O)CC[C@H]2[C@H](CC[C@@H]3[C@@H]2CC[C@@]2(C)[C@H]3[C@@H]3C[C@@H]3[C@@H]2C(=O)Cn2cc(C#N)cn2)C1 [Example 1, 1-(2-((2R,4aS,4bR,6aS,7S,7aS,8aR,8bR,8cR,10aR)-2-hydroxy-2,6a-dimethyloctadecahydrocyclopropa[4,5]cyclopenta[1,2-a]phenanthren-7-yl)-2-oxoethyl)-1H-pyrazole-4-carbonitrile] | 54.26 | 130.22 | 7.61 | – | – | – | –
2 | C[C@@]1(O)CC[C@H]2[C@H](CC[C@@H]3[C@@H]2CC[C@@]2(C)[C@H]3[C@@H]3C[C@@H]3[C@@H]2C(=O)Cn2cc(C(F)(F)F)cn2)C1 [Example 3, 1-((2R,4aS,4bR,6aS,7S,7aS,8aR,8bR,8cR,10aR)-2-Hydroxy-2,6a-dimethyloctadecahydrocyclopropa[4,5]cyclopenta[1,2-a]phenanthren-7-yl)-2-(4-(trifluoromethyl)-1H-pyrazol-1-yl)ethan-1-one] | 59.93 | 143.81 | 7.87 | – | – | – | –
3 | C[C@@]1(O)CC[C@H]2[C@H](CC[C@@H]3[C@@H]2CC[C@]2(C)C(C(=O)Cn4cc(C#N)cn4)C[C@@H](C4CC4)[C@@H]32)C1 (stereo partly drawn) [Example 48, 1-(2-((3R,5R,8R,9R,10S,13S,14S,15S)-15-Cyclopropyl-3-hydroxy-3,13-dimethylhexadecahydro-1H-cyclopenta[a]phenanthren-17-yl)-2-oxoethyl)-1H-pyrazole-4-carbonitrile] | 55.92 | 134.21 | 8.12 | – | – | – | –
4 | C[C@@]1(O)CC[C@H]2[C@H](CC[C@@H]3[C@@H]2CC[C@@]2(C)[C@H]3[C@H](C3CC3)C[C@@H]2C(=O)Cn2ccnn2)C1 [Example 51, 1-((3R,5R,8R,9R,10S,13S,14S,15S,17S)-15-Cyclopropyl-3-hydroxy-3,13-dimethylhexadecahydro-1H-cyclopenta[a]phenanthren-17-yl)-2-(1H-1,2,3-triazol-1-yl)ethan-1-one] | – | – | – | 30.72 | 73.72 | – | –
5 | C[C@@H]1C[C@H](C(=O)Cn2ccc(C(F)(F)F)n2)[C@@]2(C)CC[C@H]3[C@@H](CC[C@@H]4C[C@](C)(O)CC[C@@H]43)[C@H]12 [Example 86, 1-((3R,5R,8R,9R,10S,13S,14S,15R,17S)-3-Hydroxy-3,13,15-trimethylhexadecahydro-1H-cyclopenta[a]phenanthren-17-yl)-2-(3-(trifluoromethyl)-1H-pyrazol-1-yl)ethan-1-one] | – | – | 8.10 | – | – | 7.13 | –
6 | C[C@@H]1C[C@H](C(=O)Cn2cc(C#N)c(Cl)n2)[C@@]2(C)CC[C@H]3[C@@H](CC[C@@H]4C[C@](C)(O)CC[C@@H]43)[C@H]12 [Example 88, 3-Chloro-1-(2-((3R,5R,8R,9R,10S,13S,14S,15R,17S)-3-hydroxy-3,13,15-trimethylhexadecahydro-1H-cyclopenta[a]phenanthren-17-yl)-2-oxoethyl)-1H-pyrazole-4-carbonitrile] | – | – | 8.17 | – | – | 7.31 | –
7 | C[C@@H]1C[C@H](C(=O)Cn2nc(C#N)cc2C#N)[C@@]2(C)CC[C@H]3[C@@H](CC[C@@H]4C[C@](C)(O)CC[C@@H]43)[C@H]12 [Example 89, 1-(2-((3R,5R,8R,9R,10S,13S,14S,15R,17S)-3-Hydroxy-3,13,15-trimethylhexadecahydro-1H-cyclopenta[a]phenanthren-17-yl)-2-oxoethyl)-1H-pyrazole-3,5-dicarbonitrile] | – | – | 8.37 | – | – | 7.37 | –
8 | CC[C@@H]1C[C@H](C(=O)Cn2ccc(C#N)n2)[C@@]2(C)CC[C@H]3[C@@H](CC[C@@H]4C[C@](C)(O)CC[C@@H]43)[C@H]12 [Example 90, 1-(2-((3R,5R,8R,9R,10S,13S,14S,15R,17S)-15-Ethyl-3-hydroxy-3,13-dimethylhexadecahydro-1H-cyclopenta[a]phenanthren-17-yl)-2-oxoethyl)-1H-pyrazole-3-carbonitrile] | 36.92 | 88.61 | 7.79 | – | – | – | very significantly different
9 | C[C@@]1(O)CC[C@H]2[C@H](CC[C@@H]3[C@@H]2CC[C@@]2(C)[C@H]3[C@H](C3CC3)C[C@@H]2C(=O)Cn2ncnn2)C1 [Example 98, 1-((3R,5R,8R,9R,10S,13S,14S,15S,17S)-15-Cyclopropyl-3-hydroxy-3,13-dimethylhexadecahydro-1H-cyclopenta[a]phenanthren-17-yl)-2-(2H-tetrazol-2-yl)ethan-1-one] | – | – | 7.67 | 33.54 | 80.5 | – | very significantly different
